The results in this text go back to patent US7943770B2, “Fused quinoline derivative and use thereof” (Takeda Pharmaceutical Company Limited, priority 2004, dated 2011).

For the assay, the target named is T1, hNK2 receptor (Homo sapiens, UniProt P21452).
T1 construct: host or cells: CHO cells
T1 sequence (P21452 1-398): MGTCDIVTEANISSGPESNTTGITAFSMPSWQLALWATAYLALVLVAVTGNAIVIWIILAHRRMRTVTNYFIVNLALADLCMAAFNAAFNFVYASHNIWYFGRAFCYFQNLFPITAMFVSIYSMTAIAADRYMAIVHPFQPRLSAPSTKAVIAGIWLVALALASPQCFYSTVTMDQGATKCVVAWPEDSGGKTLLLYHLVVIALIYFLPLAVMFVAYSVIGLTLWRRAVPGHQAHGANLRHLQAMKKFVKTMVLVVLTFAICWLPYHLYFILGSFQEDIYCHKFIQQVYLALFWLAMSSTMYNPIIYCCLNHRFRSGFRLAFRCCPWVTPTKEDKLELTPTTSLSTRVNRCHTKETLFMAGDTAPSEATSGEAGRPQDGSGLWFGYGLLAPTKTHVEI
The assay is described as follows: Radio-ligand ([125I]-NKA) receptor binding inhibitory activity using membrane fraction of hNK2 receptor-expressing CHO cell. As to conditions: membrane fraction of hNK2 receptor-expressing CHO cells, 25° C., 30 min. The protocol: hNK2 receptor-expressing CHO cells (produced by EUROSCREEN) were cultured in HAM-F12 medium containing 400 μg/ml Geneticin, 100 U/mL penicillin, 100 μg/mL streptomycin and 10% inactivated serum. The medium was removed and adhered cells were washed with PBS, and PBS containing 5 mM EDTA was added to detach the cells from the flask. The cells were recovered by centrifugation, suspended in suspending buffer A (15 mM Tris-HCl (pH 7.5), 2 mM MgCl2, 0.3 mM EDTA, 1 mM EGTA), disrupted by POLYTRON homogenizer (manufactured by KINEMATICA) and centrifuged at 800×g for 10 min. The supernatant was recovered and ultracentrifuged at 100000×g for 25 min. The precipitated fraction was suspended in suspending buffer B (7.5 mM Tris-HCl (pH 7.5), 12.5 mM MgCl2, 0.3 mM EDTA, 1 mM, […], 250 mM Sucrose) and cryopreserved (at −80° C.) as a receptor specimen.
An assay buffer (50 μl, 50 mM Tris-HCl (pH 7.4), 0.02% bovine serum albumin, 2 μg/mL chymostatin, 40 μg/mL bacitracin, 40 μg/mL APMSF, 3 mM MnCl2) was added to a 96 well microassay plate. Thereto was added a 20 μg/mL membrane specimen suspended in the assay buffer (50 μL). An assay buffer (50 μL) containing 2% dimethyl sulfoxide was added to examine the total binding, 4 unlabeled NKA (produced by Peptide Institute, Inc.) solution (50 μL) diluted with an assay buffer containing 2% dimethyl sulfoxide was added to examine non-specific binding, and a test compound diluted with an assay buffer (50 containing 2% dimethyl sulfoxide) was added to examine the binding inhibitory activity of the test compound. Furthermore, […] [^125I]-NKA (produced by Amersham Biosciences) solution (50 μL) was added to each well.
After reaction at 25° C. for 30 min., the reaction was stopped by rapid filtration on a unifilter plate (GF/C) (manufactured by PerkinElmer) using a cell harvester (manufactured by PerkinElmer) and the cells were washed 5 times with 50 mM Tris-HCl (pH 7.4) buffer containing 0.02% bovine serum albumin (250 μL). The GF/C filter plate was dried and 20 μl, of MicroScinti-O (manufactured by PerkinElmer) was added and the radioactivity was measured in Topcount (manufactured by PerkinElmer). The GF/C filter plate, which had been immersed in 0.3% polyethyleneimine for one day, was used. Specific binding is shown by the value obtained by subtracting non-specific binding from the total binding. The binding inhibitory activity of the test compound is shown by the ratio of the value obtained by subtracting the measured value associated with the addition of the test compound from the total binding, to the value of the specific binding.
For `CCC(=O)N[C@@H]1CCCC[C@@H]1C(=O)N1CC[C@@H]2[C@H](c3ccccc3)Nc3ccccc3[C@@H]21` [Example 86, N-((1R,2S)-2-{[(3aR,4R,9bR)-4-Phenyl-2,3,3a,4,5,9b-hexahydro-1H-pyrrolo[3,2-c]quinolin-1-yl]carbonyl}cyclohexyl)propanamide], the 50% inhibitory concentration (IC50) was less than 10 nM.

In turn, `O=C(N[C@@H]1CCCC[C@@H]1C(=O)N1CC[C@@H]2[C@H](c3ccccc3)Nc3ccccc3[C@@H]21)c1ccc(C(F)(F)F)cc1` [Example 87, N-((1R,2S)-2-{[(3aR,4R,9bR)-4-Phenyl-2,3,3a,4,5,9b-hexahydro-1H-pyrrolo[3,2-c]quinolin-1-yl]carbonyl}cyclohexyl)-4-(trifluoromethyl)benzamide] showed an IC50 of less than 10 nM.

`O=C(N[C@@H]1CCCC[C@@H]1C(=O)N1CC[C@@H]2[C@H](c3ccccc3)Nc3ccccc3[C@@H]21)c1cccs1` [Example 89, N-((1R,2S)-2-{[(3aR,4R,9bR)-4-Phenyl-2,3,3a,4,5,9b-hexahydro-1H-pyrrolo[3,2-c]quinolin-1-yl]carbonyl}cyclohexyl)thiophene-2-carboxamide] gave an IC50 of less than 10 nM.

For the compound `COc1ccc(C(=O)N[C@@H]2CCCC[C@@H]2C(=O)N2CC[C@@H]3[C@H](c4ccccc4)Nc4ccccc4[C@@H]32)cc1` [Example 90, 4-Methoxy-N-((1R,2S)-2-{[(3aR,4R,9bR)-4-phenyl-2,3,3a,4,5,9b-hexahydro-1H-pyrrolo[3,2-c]quinolin-1-yl]carbonyl}cyclohexyl)benzamide], the 50% inhibitory concentration (IC50) is less than 1 nM.

The compound `O=C(N[C@@H]1CCCC[C@@H]1C(=O)N1CC[C@@H]2[C@H](c3ccccc3)Nc3ccccc3[C@@H]21)c1ccncc1` [Example 91, N-((1R,2S)-2-{[(3aR,4R,9bR)-4-Phenyl-2,3,3a,4,5,9b-hexahydro-1H-pyrrolo[3,2-c]quinolin-1-yl]carbonyl}cyclohexyl)isonicotinamide] returned an IC50 of less than 10 nM.

As for `O=C(N[C@@H]1CCCC[C@@H]1C(=O)N1CC[C@@H]2[C@H](c3ccccc3)Nc3ccccc3[C@@H]21)c1ccc(F)cc1` [Example 92, 4-Fluoro-N-((1R,2S)-2-{[(3aR,4R,9bR)-4-phenyl-2,3,3a,4,5,9b-hexahydro-1H-pyrrolo[3,2-c]quinolin-1-yl]carbonyl}cyclohexyl)benzamide], the 50% inhibitory concentration (IC50) was less than 10 nM.

In the case of `CCCCCC(=O)N[C@@H]1CCCC[C@@H]1C(=O)N1CC[C@@H]2[C@H](c3ccccc3)Nc3ccccc3[C@@H]21` [Example 93, N-((1R,2S)-2-{[(3aR,4R,9bR)-4-Phenyl-2,3,3a,4,5,9b-hexahydro-1H-pyrrolo[3,2-c]quinolin-1-yl]carbonyl}cyclohexyl)hexanamide], the IC50 is less than 10 nM.

`COc1ccccc1C(=O)N[C@@H]1CCCC[C@@H]1C(=O)N1CC[C@@H]2[C@H](c3ccccc3)Nc3ccccc3[C@@H]21` [Example 94, 2-Methoxy-N-((1R,2S)-2-{[(3aR,4R,9bR)-4-phenyl-2,3,3a,4,5,9b-hexahydro-1H-pyrrolo[3,2-c]quinolin-1-yl]carbonyl}cyclohexyl)benzamide] yielded an IC50 of less than 10 nM.

Turning to `COc1cccc(C(=O)N[C@@H]2CCCC[C@@H]2C(=O)N2CC[C@@H]3[C@H](c4ccccc4)Nc4ccccc4[C@@H]32)c1` [Example 95, 3-Methoxy-N-((1R,2S)-2-{[(3aR,4R,9bR)-4-phenyl-2,3,3a,4,5,9b-hexahydro-1H-pyrrolo[3,2-c]quinolin-1-yl]carbonyl}cyclohexyl)benzamide], the IC50 was less than 10 nM.

Consider `O=C(N[C@@H]1CCCC[C@@H]1C(=O)N1CC[C@@H]2[C@H](c3ccccc3)Nc3ccccc3[C@@H]21)c1cccc(F)c1` [Example 96, 3-Fluoro-N-((1R,2S)-2-{[(3aR,4R,9bR)-4-phenyl-2,3,3a,4,5,9b-hexahydro-1H-pyrrolo[3,2-c]quinolin-1-yl]carbonyl}cyclohexyl)benzamide], for which the IC50 was less than 10 nM.

`Cc1ccccc1C(=O)N[C@@H]1CCCC[C@@H]1C(=O)N1CC[C@@H]2[C@H](c3ccccc3)Nc3ccccc3[C@@H]21` [Example 97, 2-Methyl-N-((1R,2S)-2-{[(3aR,4R,9bR)-4-phenyl-2,3,3a,4,5,9b-hexahydro-1H-pyrrolo[3,2-c]quinolin-1-yl]carbonyl}cyclohexyl)benzamide] displayed an IC50 of less than 10 nM.

`Cc1cccc(C(=O)N[C@@H]2CCCC[C@@H]2C(=O)N2CC[C@@H]3[C@H](c4ccccc4)Nc4ccccc4[C@@H]32)c1` [Example 98, 3-Methyl-N-((1R,2S)-2-{[(3aR,4R,9bR)-4-phenyl-2,3,3a,4,5,9b-hexahydro-1H-pyrrolo[3,2-c]quinolin-1-yl]carbonyl}cyclohexyl)benzamide] came in with an IC50 of less than 1 nM.

For the compound `Cc1ccc(C(=O)N[C@@H]2CCCC[C@@H]2C(=O)N2CC[C@@H]3[C@H](c4ccccc4)Nc4ccccc4[C@@H]32)cc1` [Example 99, 4-Methyl-N-((1R,2S)-2-{[(3aR,4R,9bR)-4-phenyl-2,3,3a,4,5,9b-hexahydro-1H-pyrrolo[3,2-c]quinolin-1-yl]carbonyl}cyclohexyl)benzamide], the IC50 was less than 10 nM.

Compound `COC(=O)c1ccc(C(=O)N[C@@H]2CCCC[C@@H]2C(=O)N2CC[C@@H]3[C@H](c4ccccc4)Nc4ccccc4[C@@H]32)cc1` [Example 100, Methyl 4-{[((1R,2S)-2-{[(3aR,4R,9bR)-4-phenyl-2,3,3a,4,5,9b-hexahydro-1H-pyrrolo[3,2-c]quinolin-1-yl]carbonyl}cyclohexyl)amino]carbonyl}benzoate] displayed an IC50 of less than 10 nM.

On to `O=C(/C=C/c1ccccc1)N[C@@H]1CCCC[C@@H]1C(=O)N1CC[C@@H]2[C@H](c3ccccc3)Nc3ccccc3[C@@H]21` [Example 101, (2E)-3-Phenyl-N-((1R,2S)-2-{[(3aR,4R,9bR)-4-phenyl-2,3,3a,4,5,9b-hexahydro-1H-pyrrolo[3,2-c]quinolin-1-yl]carbonyl}cyclohexyl)acrylamide], for which the IC50 is less than 1 nM.

On to `N#Cc1ccc(C(=O)N[C@@H]2CCCC[C@@H]2C(=O)N2CC[C@@H]3[C@H](c4ccccc4)Nc4ccccc4[C@@H]32)cc1` [Example 102, 4-Cyano-N-((1R,2S)-2-([(3aR,4R,9bR)-4-phenyl-2,3,3a,4,5,9b-hexahydro-1H-pyrrolo[3,2-c]quinolin-1-yl]carbonyl)cyclohexyl)benzamide], for which the IC50 was less than 10 nM.

In turn, `O=C(CCc1ccccc1)N[C@@H]1CCCC[C@@H]1C(=O)N1CC[C@@H]2[C@H](c3ccccc3)Nc3ccccc3[C@@H]21` [Example 103, 3-Phenyl-N-((1R,2S)-2-{[(3aR,4R,9bR)-4-phenyl-2,3,3a,4,5,9b-hexahydro-1H-pyrrolo[3,2-c]quinolin-1-yl]carbonyl}cyclohexyl)propanamide] returned an IC50 of less than 1 nM.

For the compound `COc1ccc(C(=O)N[C@@H]2CCCC[C@@H]2C(=O)N2CC[C@@H]3[C@H](c4ccccc4)Nc4ccccc4[C@@H]32)cc1OC` [Example 104, 3,4-Dimethoxy-N-((1R,2S)-2-{[(3aR,4R,9bR)-4-phenyl-2,3,3a,4,5,9b-hexahydro-1H-pyrrolo[3,2-c]quinolin-1-yl]carbonyl}cyclohexyl)benzamide], the IC50 is less than 1 nM.

Regarding `COc1ccc(/C=C/C(=O)N[C@@H]2CCCC[C@@H]2C(=O)N2CC[C@@H]3[C@H](c4ccccc4)Nc4ccccc4[C@@H]32)cc1` [Example 105, (2E)-3-(4-Methoxyphenyl)-N-((1R,2S)-2-{[(3aR,4R,9bR)-4-phenyl-2,3,3a,4,5,9b-hexahydro-1H-pyrrolo[3,2-c]quinolin-1-yl]carbonyl}cyclohexyl)acrylamide], the IC50 is less than 1 nM.

`O=C(/C=C/c1ccc(C(F)(F)F)cc1)N[C@@H]1CCCC[C@@H]1C(=O)N1CC[C@@H]2[C@H](c3ccccc3)Nc3ccccc3[C@@H]21` [Example 106, (2E)-N-((1R,2S)-2-{[(3aR,4R,9bR)-4-Phenyl-2,3,3a,4,5,9b-hexahydro-1H-pyrrolo[3,2-c]quinolin-1-yl]carbonyl}cyclohexyl)-3-[4-(trifluoromethyl)phenyl]acrylamide] registered an IC50 of less than 10 nM.
